US20210196671A1, “COMPOSITIONS COMPRISING 3'-O-METHYL-4'-O-SULFATE EPICATECHIN AND THERAPEUTIC USES OF SUCH COMPOSITIONS” (SOCIÉTÉ DES PRODUITS NESTLÉ S.A., priority 2016, published 2021)

Target: T1, h-TRPA1 (Homo sapiens, UniProt O75762)
T1 construct: expressed in transfected cells; host or cells: CHO cells
Experiment: activation of CHO cells expressing h-TRPA1, calcium imaging
Type: cell-based
Procedure: Several epicatechin metabolites were tested in vitro to determine if any of these compounds are an agonist of the cation channel of TRPA1. Specifically, the activation of CHO cells expressing h-TRPA1 was tested according to the calcium imaging method described in Riera et al. (Riera, C. E., Vogel, H., Simon, S. A., Damak, S., & le Coutre, J. Sensory attributes of complex tasting divalent salts are mediated by TRPM5 and TRPV1 channels. J. Neurosci. 29, 2654-2662 (2009)).

[1] = concentration (max) tested 100 mM
[2] = concentration (max) tested 3 mM

T1 sequence (O75762 whole entry): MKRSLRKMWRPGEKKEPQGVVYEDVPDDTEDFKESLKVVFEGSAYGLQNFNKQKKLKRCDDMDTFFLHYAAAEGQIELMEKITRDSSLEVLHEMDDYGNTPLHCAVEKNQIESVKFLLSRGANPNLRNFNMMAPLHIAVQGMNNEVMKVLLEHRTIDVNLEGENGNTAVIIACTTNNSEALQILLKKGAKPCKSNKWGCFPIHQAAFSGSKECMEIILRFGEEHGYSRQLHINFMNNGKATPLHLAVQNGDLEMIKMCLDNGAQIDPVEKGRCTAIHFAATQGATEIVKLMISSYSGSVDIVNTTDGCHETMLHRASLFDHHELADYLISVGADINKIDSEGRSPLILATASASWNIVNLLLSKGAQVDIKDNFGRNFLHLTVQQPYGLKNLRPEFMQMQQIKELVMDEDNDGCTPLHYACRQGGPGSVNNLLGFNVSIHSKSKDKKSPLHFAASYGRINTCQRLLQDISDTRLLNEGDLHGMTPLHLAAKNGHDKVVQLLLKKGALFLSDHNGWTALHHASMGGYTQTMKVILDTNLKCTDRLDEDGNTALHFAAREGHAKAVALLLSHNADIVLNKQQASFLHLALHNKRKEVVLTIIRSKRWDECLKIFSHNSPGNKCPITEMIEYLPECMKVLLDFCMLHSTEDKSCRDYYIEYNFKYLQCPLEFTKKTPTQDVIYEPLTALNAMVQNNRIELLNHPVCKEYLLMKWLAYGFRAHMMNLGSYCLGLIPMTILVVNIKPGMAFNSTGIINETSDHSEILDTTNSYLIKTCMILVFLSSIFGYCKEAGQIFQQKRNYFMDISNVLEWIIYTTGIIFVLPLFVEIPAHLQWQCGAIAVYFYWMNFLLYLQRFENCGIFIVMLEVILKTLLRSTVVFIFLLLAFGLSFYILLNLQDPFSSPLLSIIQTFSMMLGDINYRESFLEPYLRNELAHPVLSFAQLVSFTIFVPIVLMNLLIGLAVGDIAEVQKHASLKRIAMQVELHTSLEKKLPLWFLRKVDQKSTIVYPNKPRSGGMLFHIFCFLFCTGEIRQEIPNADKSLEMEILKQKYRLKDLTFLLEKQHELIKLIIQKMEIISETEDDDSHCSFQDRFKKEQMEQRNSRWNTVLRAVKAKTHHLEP

Row | Compound | Activity vs hTRPA1 [1] | Activity vs hTRPA1 [2] | also measured
1 | COc1cc([C@H]2Oc3cc(O)cc(O)c3C[C@H]2O)ccc1OS(=O)(=O)O [3′-O-methyl-4′-O-sulfate-EC, 3′-O-methyl-4′-O-sulfate epicatechin] |  |  | Activity vs hTRPA1 (concentration (max) tested 1 mM): Active
2 | COc1cc([C@H]2Oc3cc(OS(=O)(=O)O)cc(O)c3C[C@H]2O)ccc1O [3′-O-methyl-7-O-sulfate-EC] | Inactive |  | 
3 | COc1cc([C@H]2Oc3cc(O)cc(O)c3C[C@H]2O)ccc1O [3′-O-methyl-EC] | Inactive |  | 
4 | O=S(=O)(O)Oc1cc([C@H]2Oc3cc(O)cc(O)c3C[C@H]2O)ccc1O [3′-O-sulfate-EC] | Inactive |  | 
5 | COc1ccc([C@H]2Oc3cc(O)cc(O)c3C[C@H]2O)cc1O [4′-O-methyl-EC] | Inactive |  | 
6 | O=S(=O)(O)Oc1ccc([C@H]2Oc3cc(O)cc(O)c3C[C@H]2O)cc1O [4′-O-sulfate-EC] | Inactive |  | 
7 | COc1ccc(C2CC(=O)c3c(O)cc(O)cc3O2)cc1O[C@@H]1O[C@H](C(=O)O)[C@@H](O)[C@H](O)[C@H]1O (stereo partly drawn) [Hesperetin-3-O-Glucuronide] |  | Inactive | 
8 | Hesperetin-4-O-Glucuronide |  | Inactive | 
9 | Hesperetin-7-3-O-Glucuronide |  | Inactive | 
